Measured values: patent publication US12234216B2, “Isotopologues salts, crystalline forms, stereoisomers, of methylone and ethylone and methods of use thereof” (Terran Biosciences Inc., priority 2021, dated 2025)
Structures can show the parent of a compound that is named as a salt.

Legend:
[1] = Metabolic stability in human liver microsomes; format: in vitro ADME; conditions: for difference in half-life and intrinsic clearance compared with the corresponding non-deuterated methylone hydrochloride: human liver microsomes
Description: Pooled liver microsomes are purchased from a reputable commercial supplier. Microsomes are stored at […] prior to use. Microsomes (final protein concentration 0.5 mg/mL), 0.1 M phosphate buffer pH 7.4 and test compound (final substrate concentration 1 μM; final DMSO concentration 0.25%) are preincubated at 37° C. prior to the addition of NADPH (final concentration 1 mM) to initiate the reaction. A minus cofactor control incubation is included for each compound tested where 0.1 M phosphate buffer pH 7.4 is added instead of NADPH (minus NADPH). Two control compounds are included with each species. All incubations are performed singularly for each test compound. Each compound is incubated for 0, 5, 15, 30 and 45 min. The control (minus NADPH) is incubated for 45 min only. The reactions are stopped by transferring incubate into acetonitrile at the appropriate time points, in a 1:3 ratio. The termination plates are centrifuged at 3,000 rpm for 20 min at 4° C. to precipitate the protein.
From a plot of ln peak area ratio (compound peak area/internal standard peak area) against time, the gradient of the line is determined. Subsequently, half-life and intrinsic clearance are calculated using the equations below: Elimination rate constant (k)=(−gradient) Half-life (t½)(min)=0.693/k Intrinsic clearance (CLint)(μL/min/mg protein)=V×0.693/t½ where V=Incubation volume (μL)/Microsomal protein (mg)
Relevant control compounds were assessed, ensuring intrinsic clearance values fall within the specified limits (if available).

[2] = tested on: participants diagnosed with at least moderate post-traumatic stress disorder (PTSD); experiment: Double-blind, randomized, placebo-controlled clinical trial of methylone-assisted psychotherapy in PTSD; format: in vivo, human; conditions: for CAPS-5 assessments compared to placebo-treated controls: Intervening Session 1C, 2C, 3C and Study Conclusion; for clinician-rated functional impairment score as measured by SDS / depression as measured by HAM-D: vs placebo-treated controls; for change in CAPS-5 assessment compared to the placebo group: 100-200 mg p.o. initial dose, 3 Experimental Sessions with psychotherapy
Description: A multicenter, randomized, double-blind, placebo-controlled trial is conducted to assess the efficacy and safety of methylone-assisted psychotherapy versus psychotherapy with placebo control in participants diagnosed with at least moderate post-traumatic stress disorder (PTSD).
This multicenter, randomized, double-blind, placebo-controlled trial is conducted at various sites in the United States with IRB approval from each study site. A flexible dose of methylone hydrochloride salt or placebo, followed by a supplemental half-dose unless contraindicated by patient's previous response or medical history, is also administered during the Treatment Period with psychotherapy in at least 3 blinded monthly Experimental Sessions. The Supplemental Dose extends the duration of drug effects on the participants during an Experimental Session. Methylone test groups are further subdivided into specific groups receiving only racemic methylone hydrochloride salt, S-methylone hydrochloride salt, or R-methylone hydrochloride salt. An optional Risk Evaluation and Mitigation Strategy (REMS) Protocol may be implemented for the racemic methylone, S-methylone, and placebo-groups. The Treatment Period lasts for approximately 12 weeks. During the Treatment Period, each Experimental Session is followed by three Intervening Sessions of non-drug psychotherapy. Each Experimental Session involves an overnight stay. The Primary Outcome measure, the change in Clinician Administered PTSD Scale for DSM-5 (CAPS-5), is determined by a blinded Independent Rater (IR) pool multiple times throughout the study. The study consists of separate periods for each participant. Initially, prospective participants undergo a Screening Period involving an initial eligibility assessment, a medical history intake, informed consent, and enrollment of eligible participants. Next, a Preparation Period is undertaken for enrolled participants involving medication tapering and clinical baseline assessments to confirm each participant meets enrollment criteria. As part of the Preparation Period, a detailed assessment of co-morbidities to PTSD is recorded. Participants may remain on prescribed courses of selective serotonin reuptake inhibitor (SSRI) or serotonin and norepinephrine reuptake inhibitor (SNRI) treatment. Dosages and/or frequency of administration of a prescribed SSRI or SNRI may be adjusted to fit within study parameters. Participants may be required to taper a prescribed course of medication in order to maintain eligibility within the study. The Treatment Period consists of three monthly Experimental Sessions and associated Intervening Sessions of integrative behavioral psychotherapy. The Treatment Period lasts approximately 12 weeks. Following the Treatment Period is a Follow-up Period and Study Conclusion. During the Follow-up Period and Study Conclusion, participants complete 4 weeks with no study visits, followed by a Study Conclusion visit.
This study compares the effects of three blinded Experimental Sessions of psychotherapy in combination with flexible doses of methylone or placebo administered as described below. Non-drug preparatory and intervening psychotherapy sessions are also included. Patient's weight is determined for dosage calculation. Initial dose is 100 mg unless this will result in a dosage of less than 1.5 mg/kg of patient weight. Initial dose thereby adjusted upward in 25 mg increments to deliver the lowest dose possible of at least 1.5 mg/kg of patient weight. Initial dose for Experimental Session 2 and 3 is cumulative dose calculated by adding the initial dose plus REMS protocol dose used the previous Experimental Session for each patient.
Randomization occurs prior to the initiation of Experimental Session 1. Each participant is provided the next randomized number in a sequence by a blinded study monitor. […]

[3] = tested on: Male Sprague-Dawley rats; experiment: Rat elevated zero-maze model of anxiety; format: in vivo; conditions: for decrease in SAPs compared with chlordiazepoxide / time spent in the open arms compared with chlordiazepoxide: 30 mg/kg ip vs chlordiazepoxide 6 mg/kg ip; for anxiolytic effects compared with chlordiazepoxide: high dose level; for time in the open arms: FIGS. 62-64
Description: The rat zero-maze model is a refined alternative to the plus-maze, the most widely used animal model of anxiety, and consists of an elevated annular platform, divided equally into four quadrants. Two opposite quadrants are enclosed by Perspex walls on both the inner and the outer edges of the platform, while the remaining two opposite quadrants are open being enclosed only by a Perspex “lip”. Animals will show a preference for the closed areas, and avoidance of the open sections is assumed to stem from a rodent's natural aversion to open, exposed spaces. The primary index of anxiety, which reflect changes in open arm preference, is the percentage of time spent on the open areas. A reduction in the amount of activity on the open areas is considered to reflect an increase in anxiety. Other, ethologically-based behaviours are also assessed as indices of anxiety. One of the most important is stretched attend postures (SAP) from closed to open quadrants. […] Shepherd, J K; et al., (1994) Behavioural and pharmacological validation of the elevated “zero-maze” as an animal model of anxiety. Psychopharmacol., 116:56-64.
Male Sprague-Dawley 200-250 g (Envigo UK) rats were used. Animals were group-housed (5 per cage; cage size: 40×40×20 cm) in a temperature-controlled environment (22±2° C.), under a 12 h light-dark cycle (lights on: 08:00 hours) for one week prior to testing. Food and water were freely available. Number of animals per group=5. Animals were moved into the experimental room 16-24 hours before testing.
The elevated 0-maze comprises a black Perspex annular platform (105 cm diameter, 10 cm width) elevated to 65 cm above ground level, divided equally into four quadrants. Two opposite quadrants are enclosed by clear red Perspex walls (27 cm high) on both the inner and outer edges of the platform, while the remaining two opposite quadrants are surrounded only by a Perspex “lip” (1 cm high) which serves as a tactile guide to animals on these open areas.
Subjects were weighed and tail marked before being injected. After a specified pre-treatment time, subjects were placed in a closed quadrant and a 5-min test period were recorded on videotape for subsequent analysis. The maze were cleaned with 5% methanol/water solution and dried thoroughly between test sessions. Behavioural measures comprise percentage time spent on the open areas (% TO) and frequency of stretched attend postures (SAP) from closed to open quadrants. Since the control groups were all treated identically with the same vehicle these were combined to increase power. The Chlordiazepoxide groups were also treated identically with the same dose so these were also combined to increase power. Animals are scored as being in the open area when all four paws were in an open quadrant and in the closed area only when all four paws have passed over the open-closed divide. All testing were carried out between 9.00 and 16.00 hours.
For each study, a 1-way ANOVA was conducted across vehicle, CDP, and drug treatment groups. Each group was compared to the vehicle group and a p-value for treatment determined by Fishers Least Significant Difference (LSD) test. This analysis was performed in GraphPad Prism (Version 9). Formulations: […]
Intraperitoneal (IP): Racemic methylone HCl was formulated in Vehicle 1 (Saline) for injection to concentrations of 1, 3 and 6 mg/mL to provide doses of 5, 15 and 30 mg/kg when administered ip in 5 mL/kg dosing volumes.
Intraperitoneal (IP): S-methylone HCl was formulated in Vehicle 1 (Saline) for injection to concentrations of 0.5, 1, 1.5, 3 and 6 mg/mL to provide doses of 2.5, 5, 7.5, 15 and 30 mg/kg when administered ip in 5 mL/kg dosing volumes.
Intraperitoneal (IP): R-methylone HCl was formulated in Vehicle 1 (Saline) for injection to concentrations of 1, 3 and 6 mg/mL to provide doses of 5, 15 and 30 mg/kg when administered ip in 5 mL/kg dosing volumes. […]

[4] = specific doses, ip, 30 min pretest
[5] = specific doses, ip, 30 min pretest, vs chlordiazepoxide 6 mg/kg, FIGS. 65-67

SMILES | difference in half-life and intrinsic clearance compared with the corresponding non-deuterated methylone hydrochloride [1] | CAPS-5 assessments compared to placebo-treated controls [2] | daytime sleepiness as measured by ESS ([2]; Study Conclusion) | clinician-rated functional impairment score as measured by SDS ([2]; Study Conclusion) | depression as measured by HAM-D ([2]; Study Conclusion) | change in CAPS-5 assessment compared to the placebo group ([2]; Study Conclusion) | decrease in SAPs compared with chlordiazepoxide [3] | time spent in the open arms compared with chlordiazepoxide [3] | anxiolytic effects compared with chlordiazepoxide [3] | time in the open arms [3, 4] | frequency of SAPs [3, 5] | other results
Cl.[2H]C([2H])([2H])N[C@@H](C)C(=O)c1ccc2c(c1)OCO2 [(S)-Methylone-d3 hydrochloride, (S)-1-(benzo[d][1,3]dioxol-5-yl)-2-((methyl-d3)amino)propan-1-one HCl] | differences in half-life and intrinsic clearance | – | – | – | – | – | – | – | – | – | – | CLint (μL/min/mg protein) ([1]; human liver microsomes 0.5 mg/mL, 1 μM compound, NADPH, 0-45 min): 9.60 μL/min/mg protein
Cl.[2H]C1([2H])Oc2ccc(C(=O)C(C)NC)cc2O1 (racemic) [(rac)-Methylone-d2 hydrochloride, 1-(benzo[d][1,3]dioxol-5-yl-2,2-d2)-2-((methyl)amino)propan-1-one HCl] | differences in half-life and intrinsic clearance | – | – | – | – | – | – | – | – | – | – | –
Cl.[2H]C1([2H])Oc2ccc(C(=O)[C@@H](C)NC)cc2O1 [(R)-Methylone-d2 hydrochloride, (R)-1-(benzo[d][1,3]dioxol-5-yl-2,2-d2)-2-((methyl)amino)propan-1-one HCl] | differences in half-life and intrinsic clearance | – | – | – | – | – | – | – | – | – | – | –
CN[C@H](C)C(=O)c1ccc2c(c1)OCO2 [(R)-Methylone Hydrochloride, (R)-1-(benzo[d][1,3]dioxol-5-yl)-2-(methylamino)propan-1-one hydrochloride] | – | Significant improvements in CAPS-5 assessments | significant improvement in lessening daytime sleepiness | significant improvement in clinician-rated functional impairment score | significant improvement depression | significant mean reduction in CAPS-5 assessment | to the same level as chlordiazepoxide | as effective as chlordiazepoxide | anxiolytic effects as effective as chlordiazepoxide | increase time in the open arms | decreased the frequency of SAPs as effectively as the benzodiazepine chlordiazepoxide | adverse anxiogenic incidents ([2]; compared to placebo-treated controls): without a significant increase in adverse anxiogenic incidents; frequency of SAPs ([3]; 30 mg/kg ip): significantly decreasing SAPs; frequency of SAPs, trend with dose ([3]; 5, 15 and 30 mg/kg ip): dose dependent decrease in SAPs; time spent in the open arms, trend with dose ([3]; 5, 15 and 30 mg/kg ip): dose dependent increase in time spent in the open arms; anxiogenic effect ([3]; any dose (5, 15, 30 mg/kg ip)): did not show any anxiogenic effect at any dose; anxiogenic effects at lower doses ([3]; ip): not seen
CN[C@@H](C)C(=O)c1ccc2c(c1)OCO2 [(S)-Methylone Hydrochloride, (S)-1-(benzo[d][1,3]dioxol-5-yl)-2-(methylamino)propan-1-one hydrochloride] | – | Significant improvements in CAPS-5 assessments | significant improvement in lessening daytime sleepiness | significant improvement in clinician-rated functional impairment score | significant improvement depression | significant mean reduction in CAPS-5 assessment | even more effective than chlordiazepoxide at reducing SAPs | as effective as chlordiazepoxide at increasing time spent in the open arms | anxiolytic effects as effective as chlordiazepoxide | increase time in the open arms | decreased the frequency of SAPs as effectively as the benzodiazepine chlordiazepoxide | total dosage of drug needed for significant mean reduction in CAPS-5, compared to the racemic methylone-treated subgroup ([2]; Study Conclusion): lower total dosage of drug; frequency of SAPs, trend with dose ([3]; 2.5 mg/kg and 5 mg/kg ip): dose dependent increase in SAPs; time spent in the open arms, trend with dose ([3]; 5 mg/kg, 7.5 mg/kg and 15 mg/kg ip): time spent in the open arms decreased as the dose increased; frequency of SAPs, trend with dose ([3]; 7.5 mg/kg, 15 mg/kg and 30 mg/kg ip): dose dependent decrease in SAPS; overall effect on anxiety ([3]; 30 mg/kg ip): effective anxiolytic on all measures; time spent in the open arms ([3]; 30 mg/kg ip): time in the open arms increased; anxiogenic effects at lower doses ([3]; ip, hydrochloride): anxiogenic effects at lower doses
